This note sets out measurements from patent publication US20070128217A1 (priority 2003, published 2007).

Assay [1] has as its system antibodies in sera from SARS patients (sera 1a, 1b, 2, 6, 37, 62, London, SARS-yellow, SARS-green). It counts as binding, human. Set-up: Binding of serum 6 to linear peptides of protein X1 of SARS-CoV Urbani / Binding of serum 37 to linear peptides of protein X1 of SARS-CoV Urbani / Binding of serum 6 to looped/cyclic peptide (PEPSCAN-ELISA) / Binding of serum 37 to looped/cyclic peptide (PEPSCAN-ELISA) / Binding of serum 37 to looped/cyclic peptides of protein X1 of SARS-CoV Urbani / Binding of serum 6 to linear peptides of protein X2 / Binding of serum 37 to linear peptides of protein X2 / Binding of serum 37 to looped/cyclic peptides of protein X2 of SARS-CoV Urbani / Binding of serum 6 to linear peptides of protein M of SARS-CoV Urbani / Binding of serum 37 to linear peptides of protein M of SARS-CoV Urbani / Binding of serum 6 to looped/cyclic peptides of protein M of SARS-CoV Urbani / Binding of serum 37 to looped/cyclic peptides of protein M of SARS-CoV Urbani / Binding of serum 6 to linear peptides of protein X3 of SARS-CoV Urbani / Binding of serum 37 to linear peptides of protein X3 of SARS-CoV Urbani / Binding of serum 37 to looped/cyclic peptides of protein X3 of SARS-CoV Urbani / Binding of serum 6 to linear peptides of protein X4 of SARS-CoV Urbani / Binding of serum 37 to linear peptides of protein X4 of SARS-CoV Urbani / Binding of serum 37 to looped/cyclic peptides of protein X4 of SARS-CoV Urbani / Binding of serum 6 to linear peptides of protein X5 of SARS-CoV Urbani / Binding of serum 37 to linear peptides of protein X5 of SARS-CoV Urbani / Binding of serum 37 to looped/cyclic peptides of protein X5 of SARS-CoV Urbani / Binding of serum 6 to linear peptides of protein N of SARS-CoV Urbani / Binding of serum 37 to linear peptides of protein N of SARS-CoV Urbani / Binding of serum 6 to linear peptide (PEPSCAN-ELISA) / Binding of serum 1a to looped/cyclic peptides of protein N of SARS-CoV Urbani / Binding of serum 1b to looped/cyclic peptides of protein N of SARS-CoV Urbani / Binding of serum 2 to looped/cyclic peptides of protein N of SARS-CoV Urbani / Binding of serum 6 to looped/cyclic peptides of protein N of SARS-CoV Urbani / Binding of serum 37 to looped/cyclic peptides of protein N of SARS-CoV Urbani / Binding of serum 62 to looped/cyclic peptides of protein N of SARS-CoV Urbani / Binding of serum London to looped/cyclic peptides of protein N of SARS-CoV Urbani / Binding of serum SARS-green to looped/cyclic peptides of protein N of SARS-CoV Urbani: unit not given here.

Assay [2] relates to control sera (pooled serum of ten healthy LUMC hospital workers; commercial negative donor pooled serum from the Dutch bloodbank). It is filed as binding, human. Set-up: Binding of Control serum LUMC to linear peptides / Binding of Control serum Blood-bank to linear peptides / Binding of Control serum LUMC to looped peptides / Binding of Control Serum Blood-Bank to Looped peptides / Binding of Control serum LUMC to linear peptides of the protein M of SARS-CoV Urbani / Binding of Control serum Blood-bank to linear peptides of the protein M of SARS-CoV Urbani / Binding of Control serum LUMC to looped peptides of the protein M of SARS-CoV Urbani / Binding of Control Serum Blood-Bank to Looped peptides of the protein M of SARS-CoV Urbani: unit not given here.

Assay [3] relates to rabbit serum obtained by immunizing a rabbit with the SARS-CoV strain Frankfurt 1. It is filed as binding. Set-up: Binding of a rabbit serum to linear peptides / Binding of a rabbit serum to looped peptides / Rabbit serum linear peptides / Rabbit serum looped peptides / Binding of a rabbit serum to linear peptides of protein N of SARS-CoV Urbani (Rabbit serum linear peptides) / Binding of a rabbit serum to looped/cyclic peptides of protein N of SARS-CoV Urbani (Rabbit serum looped peptides): unit not given here.

Regarding ASFRLFARTRSMWSF, in assay [1], the “Binding of serum 1a to linear peptides of protein M of SARS-CoV Urbani” value amounted to 0.7, the “Binding of serum 1a to looped/cyclic peptides of protein M of SARS-CoV Urbani” value was 0.6, the “Binding of serum 1b to linear peptides of protein M of SARS-CoV Urbani” value was found to be 0.6 and the “Binding of serum 1b to looped/cyclic peptides of protein M of SARS-CoV Urbani” value was found to be 0.5. Besides, in assay [1], the “Binding of serum 2 to linear peptides of protein M of SARS-CoV Urbani” value is given as 0.5, the “Binding of serum 2 to looped/cyclic peptides of protein M of SARS-CoV Urbani” value is recorded as 0.5, the “Binding of serum 6 to linear peptides of protein M of SARS-CoV Urbani” value was found to be 0.7 and the “Binding of serum 6 to looped/cyclic peptides of protein M of SARS-CoV Urbani” value came to 0.9. Moreover, in assay [1], the “Binding of serum 37 to linear peptides of protein M of SARS-CoV Urbani” value is reported as 0.4, the “Binding of serum 37 to looped/cyclic peptides of protein M of SARS-CoV Urbani” value is 0.5, the “Binding of serum 62 to linear peptides of protein M of SARS-CoV Urbani” value was 0.4 and the “Binding of serum 62 to looped/cyclic peptides of protein M of SARS-CoV Urbani” value is listed as 0.5. Moreover, in assay [1], the “Binding of serum London to linear peptides of protein M of SARS-CoV Urbani” value amounted to 0.3, the “Binding of serum London to looped/cyclic peptides of protein M of SARS-CoV Urbani” value is reported as 0.2, the “Binding of serum SARS-green to linear peptides of protein M of SARS-CoV Urbani” value is given as 0.4 and the “Binding of serum SARS-green to looped/cyclic peptides of protein M of SARS-CoV Urbani” value was 0.2. Further, in assay [1], the “Binding of serum SARS-yellow to linear peptides of protein M of SARS-CoV Urbani” value worked out at 0.2 and the “Binding of serum SARS-yellow to looped/cyclic peptides of protein M of SARS-CoV Urbani” value is on record as 0.6. In assay [2], the “Binding of Control Serum Blood-Bank to Looped peptides of the protein M of SARS-CoV Urbani” value was determined as 0.7, the “Binding of Control serum Blood-bank to linear peptides of the protein M of SARS-CoV Urbani” value is 0.7, the “Binding of Control serum LUMC to linear peptides of the protein M of SARS-CoV Urbani” value is given as 0.6 and the “Binding of Control serum LUMC to looped peptides of the protein M of SARS-CoV Urbani” value came out at 0.7. Moreover, in assay [3], the “Rabbit serum linear peptides” value was determined as 0.3 and the “Rabbit serum looped peptides” value was determined as 0.2.
Turning to ASLPFGWLVIGVAFL, in assay [1], the “Binding of serum 1a to linear peptides of protein X1 of SARS-CoV Urbani” value turned out to be 0.7, the “Binding of serum 1a to looped/cyclic peptide (PEPSCAN-ELISA)” value amounted to 0.5, the “Binding of serum 1b to linear peptides of protein X1 of SARS-CoV Urbani” value is given as 0.5 and the “Binding of serum 1b to looped/cyclic peptide (PEPSCAN-ELISA)” value worked out at 0.3. Also, in assay [1], the “Binding of serum 2 to linear peptides of protein X1 of SARS-CoV Urbani” value came out at 0.6, the “Binding of serum 2 to looped/cyclic peptide (PEPSCAN-ELISA)” value is listed as 0.4, the “Binding of serum 6 to linear peptides of protein X1 of SARS-CoV Urbani” value is 0.5 and the “Binding of serum 6 to looped/cyclic peptide (PEPSCAN-ELISA)” value stood at 0.2. In addition, in assay [1], the “Binding of serum 37 to linear peptides of protein X1 of SARS-CoV Urbani” value was 0.6, the “Binding of serum 37 to looped/cyclic peptide (PEPSCAN-ELISA)” value came out at 0.3, the “Binding of serum 62 to linear peptides of protein X1 of SARS-CoV Urbani” value is given as 0.6 and the “Binding of serum 62 to looped/cyclic peptide (PEPSCAN-ELISA)” value is on record as 0.4. Besides, in assay [1], the “Binding of serum London to linear peptides of protein X1 of SARS-CoV Urbani” value turned out to be 0.3, the “Binding of serum London to looped/cyclic peptide (PEPSCAN-ELISA)” value came out at 0.2, the “Binding of serum SARS-green to linear peptides of protein X1 of SARS-CoV Urbani” value came to 0.2 and the “Binding of serum SARS-green to looped/cyclic peptide (PEPSCAN-ELISA)” value was determined as 0.2. For the same sequence, in assay [1], the “Binding of serum SARS-yellow to linear peptides of protein X1 of SARS-CoV Urbani” value was found to be 0.4 and the “Binding of serum SARS-yellow to looped/cyclic peptide (PEPSCAN-ELISA)” value amounted to 0.3. For the same sequence, in assay [2], the “Binding of Control Serum Blood-Bank to Looped peptides” value was determined as 0.4, the “Binding of Control serum Blood-bank to linear peptides” value stood at 0.6, the “Binding of Control serum LUMC to linear peptides” value is listed as 0.6 and the “Binding of Control serum LUMC to looped peptides” value came to 0.6. Besides, in assay [3], the “Binding of a rabbit serum to linear peptides” value was determined as 1.4 and the “Binding of a rabbit serum to looped peptides” value is reported as 0.3.
